From patent US9399070B2, “Compositions comprising a polymeric reagent and a pharmacologically active agent” (Nektar Therapeutics, priority 2003, dated 2016)

How the values were obtained:
NB2-11 cells = test: NB2-11 rat lymphoma cell proliferation assay; details: in vitro; based on determined protein content; unmodified hGH = 100% bioactivity; preliminary
Method: The biological activity of hGH and the conjugates described in Table 1 was assessed in vitro using an NB2-11 rat lymphoma cell proliferation assay. Briefly, NB2-11 cells derived from a rat lymphoma were incubated with hGH, which leads to binding of the hGH molecule to its receptor on the cell surface. Receptor binding induces the signal transduction cascade, which results in proliferation of the cells. Assay results were based on determined protein content, and a 100% bioactivity of unmodified hGH.

hypophysectomized rat = test: in vivo bioassay, weight gain in hypophysectomized rat (USP monograph for Somatotropin); details: for increase of weight (day 8): single high dose of 110 μg on day 1, day 8
Method: Conjugates 1M and 1D were further evaluated in a preliminary in vivo bioassay (hypophysectomized rat, USP monograph for Somatotropin®). Six groups of each of five animals received either hGH, 1M, 1D, or placebo in different dosing regimes. Weight gain as a pharmacodynamic output was measured on day 1, 3, 6, and 8.
The results of the experiment are summarized in FIG. 4 (weight gain following day 8) and FIG. 5 (weight gain over time course of study). […] Daily dosing of 5 μg of the hGH standard induced an overall weight gain of 4% on day 8, whereas the single high dose of 110 μg of 1M and ID produced an increase of weight of 7% and 9% respectively (FIG. 4).

Row | Substance | Activity, % (NB2-11 cells) [%] | increase of weight (day 8) (hypophysectomized rat) [%] | also measured
1 | di(mPEG-2-ButyrALD-40k) hGH [Sample 4D] | 0.2 | – | –
2 | di(mPEG-2-NHS-40k) hGH [Sample 1D] | 0.4 | 9 | animal death in study group (hypophysectomized rat; 1D bolus group, single dose 110 μg, five animals per group): death of one animal
3 | hGH: Native, recombinant human growth hormone, unmodified | – | – | overall weight gain on day 8 (hypophysectomized rat; daily dosing of 5 μg (cumulative 35 μg), day 8): 4%; weight gain during the eight days (hypophysectomized rat; single high dose (110 μg, day 1)): no or moderate weight gain
4 | mono(mPEG-2-ButyrALD-40k) hGH [Sample 4M] | 2.5 | – | –
5 | mono(mPEG-2-NHS-40k) hGH [Sample 1M] | – | 7 | –
